Patent publication US12544350B2, “Combinatorial antitumor treatment methods and related compositions, kits, and systems” (Klotho Therapeutics, Inc., priority 2021, dated 2026)

What was measured:
[1] = system: cisplatin induced acute kidney injury (CI-AKI) in mice; assay: Cisplatin-induced acute kidney injury (CI-AKI) in mice, Compound 3 (Example 11); format: in vivo, female C57BL/6J mice
Description: The aim of the study was to investigate the efficacy of test compounds in the model of cisplatin induced acute kidney injury (CI-AKI) in mice. […] Serum analysis for urea (BUN) was performed on the 5th day and 9th days after cisplatin administration. The mean body weight loss per group was calculated every day of the study as percentage loss of initial (day 0) weight for each individual animal.
Study design, animal selection, handling and treatment were all in accordance with the CRO's study protocols and Institutional Animal Care and Use Guidelines. Animal treatment and serum samples preparation were conducted by the Animal Laboratory personnel at the CRO. 60 female C57BL/6J mice 9-12 weeks old were randomized by body weight and divided into 2 groups, 30 animals each. Body weights ranged from 13.9 to 22.0 g with an average body weight across all groups 17.75 g (SD=1.30; CV=7.3%). Each mouse was treated with a single dose via IP route of administration with cisplatin at the dose of 11 mg/kg on the day 0 of the study. […] The mice in Group 1 remained untreated after the cisplatin injection until the terminal sacrifice.
Cisplatin was administered without dilution as a factory-made 1 mg/ml solution for infusion at the injection volume of 11 ml/kg for the dose of 11 mg/kg. […] Only freshly prepared formulation was used for each dosing; each working formulation batch was prepared immediately prior to the administration. The working formulations were sterile filtered using 0.2 μm cellulose acetate syringe filters before injections. The dosing volume for the test compound was 5 ml/kg of body weight. The working formulations were administered as transparent clear solutions. Intraperitoneal (IP) route of administration was used in the study. Urea (BUN) was determined in the serum using a commercial kit according to the manufacturer's instructions. […] The rate of absorbance change at λ=340 nm is proportional to the urea concentration. […] Creatinine was measured using Modified Jaffe's method, without deproteinization. […]

[2] = system: cisplatin-induced acute kidney injury (CI-AKI) mouse model; assay: Cisplatin-induced acute kidney injury (CI-AKI) mouse model, Compound 22 (Example 9); format: in vivo, female C57BL/6J mice; details: for gradual recovery of mean body weight, onset: cisplatin 11 mg/kg IP day 0
Description: The aim of the study was to investigate the efficacy of test compound(s) in a (mouse) model for acute kidney injury. Specifically, the study investigated the efficacy of test compound(s) in cisplatin-induced acute kidney injury (CI-AKI) mouse model. For example, the effect of daily repeated intraperitoneal (IP) administration of Compound 22 at doses of 50 mg/kg for 7 consecutive days in four different treatment regimens on development of pathology in mice in CI-AKI model was evaluated. Serum analysis for urea (BUN) was performed on the 5th day and 12th days after cisplatin administration. The mean body weight loss per group was calculated every day of the study as percentage loss of initial (day 0) weight for each individual animal.
Study design, animal selection, handling and treatment were all in accordance with the CRO's study protocols and Institutional Animal Care and Use Guidelines. Animal treatment and serum samples preparation were conducted by the Animal Laboratory personnel at the CRO. 100 female C57BL/6J mice 11-14 weeks old were randomized by body weight and divided into five groups, 20 animals each. Body weights ranged from 16.9 to 22.5 g with an average body weight across all groups 19.54 g (SD=1.04; CV=5.3%). Each mouse was treated with a single dose via IP route of administration with cisplatin at the dose of 11 mg/kg on the day 0 of the study. The mice in Group 2 and 4 were repeatedly treated with Compound 22 at the dose of 50 mg/kg with an interval of 24 h for seven consecutive days starting from Day 2 or Day 0 of the study, respectively. […]
To induce acute kidney injury, cisplatin was administered without dilution as a factory-made 1 mg/ml solution for infusion at the injection volume of 11 ml/kg for the dose of 11 mg/kg. […] Urea (BUN) was determined in the serum using a commercial kit according to the manufacturer's instructions. […] The rate of absorbance change at λ=340 nm is proportional to the urea concentration. […]

[3] = system: cisplatin-induced acute kidney injury (AKI) in male Sprague Dawley rats; assay: Cisplatin-induced acute kidney injury (AKI) in rats, 90 minutes infusion (Example 12); format: in vivo; details: for body weight change over baseline (BWC): day 0-6, after post-treatment period, cisplatin 5 mg/kg IP
Description: The goal of this study was to assess the effect of compound 22 at the doses of 50 mg/kg and 25 mg/kg on the development of cisplatin-induced acute kidney injury (AKI) in male Sprague Dawley rats. Compound 22 was administrated repeatedly seven consecutive days by 90 minutes infusion into a jugular vein using automatic pumps. Treatment was initiated simultaneously with the single intraperitoneal (IP) administration of cisplatin at the dose of 5 mg/kg. The experimental animal's mortality was recorded daily. […] Serum analysis for Creatinine and Urea were performed on day −4th (blank), 1st, 3rd, 6th, 9th, and 12th (terminal) day of the study.
Rat's jugular vein catheterization. Rat's jugular vein catheterization procedure was performed on −3rd day of the study. All experimental animals were anesthetized prior to surgical intervention by Telazol at the dose of 40 mg/kg body weight and Xylazine at the dose of 8 mg/kg body weight. The anesthetized rat was placed onto a heated surgical platform. The surgical area was shaved and gently scrubbed with a drop of iodine in 96% ethanol solution. The skin incision (2 cm) was made on the right of the midline of the neck at the level of the clavicle using a scalpel. Dissected jugular vein, separated from the salivary and lymphatic tissues, was visualized and isolated approximately 5 mm section of the vessel. The cranial end of the vessel was tied using 4-0 silk ligatures. By micro surgical scissors an incision was made to pass the catheter into the vein approximately 20 mm towards the heart. The caudal end of the jugular vein was tied to catheter's collar with silk ligatures aimed to secure the place of catheter. The free end of catheter was tunneled subcutaneously and connected to a transcutaneous button that features an external port with a cap at the nape of the animal's neck. […] To prevent dehydration after the surgery animals were injected with 2 ml physiological saline intraperitoneal. To prevent catheter occlusion and ensure its functioning flushing 0.10-0.20 ml amount of physiological saline with anticoagulant (Heparin, 500 IU/ml) was applied. First time catheter flushing was performed immediately after catheter was properly positioned in the jugular vein and fixed there. The procedure was repeated prior to infusion start. When a catheter was not in use, it was locked. The infusion was started three days after the catheter placement.
Fluid infusion. Programmable automatic syringe pumps system allowed for a fluid infusion of delivering determined volume at the selected infusion time. After the catheter flushing animals were connected to the tether and the swivel setup permitted free movement of the animal during the infusion. The duration of infusion was 90 minutes. The volume of infusion was 10 ml/kg; infusion rate was determined automatically according to time of infusion and volume of the administrated formulation. The infusions were performed from 10 am to […] in a random order.
Drug formulation. Route and volume of administration. Cisplatin was administered without dilution as a factory-made 1 mg/ml solution for infusion at the injection volumes of 5 ml/kg which corresponded to the doses of 5 mg/kg. IP route was used for cisplatin administration in the study. Compound 22 was formulated in sterile conditions in physiological saline at the concentrations 5 mg/ml for the dose level 50 mg/kg and 2.5 mg/ml for the dose level 25 mg/kg and was administrated as true solution. All formulations were sterilized by filtration via Minisart RC 0.2 μm sterile syringe filter. Compound 22 infusion duration was 90 minutes. The administrated volume for all group was 10 ml/kg of the body weight.
Frequency and duration of the application. cisplatin was administered once on day 0 of the study, 30 min before first infusion. Compound 22 as well as vehicle was administrated 7 consecutive days (day 0-day 6) once per day.
Duration of the experimental period. […]

LLC animals = assay: Cancer treatment: survival and anti-tumor efficacy in LLC animals (Example 13); format: in vivo; details: day 15; Compound 22 (50 mg/kg), cisplatin (10 mg/kg)
Excerpt: Compositions, system, and/or kits of the present disclosure can be effective at treating cancer and/or tumors. For example, a treatment protocol comprising illustrative compound 22 and cisplatin, co-administered is effective as an anti-tumor treatment, in addition to compound 22 preventing/attenuating kidney damage (caused by the chemotherapeutic nephrotoxin), restoring kidney function, and/or increasing patient survival during chemotherapy. FIG. 19 illustrates the survival efficacy of Compound 22 (50 mg/kg), cisplatin (10 mg/kg), and the combination of Compound 22+cisplatin in LLC animals. The co-administration of compound 22 (an illustrative PTBA prodrug) increased the probability of survival in LLC animals at day 15 from ˜75% (cisplatin alone) to ˜95% (Compound 22+cisplatin co-administration). FIG. 20 illustrates the anti-tumor efficacy of Compound 22, cisplatin, and the combination of Compound 22+cisplatin in LLC animals. cisplatin was administered to LLC animals at day 5 and day 14 of a 21 day study. Compound 22 was co-administered (once daily) 48 hours after each dose of cisplatin, and for 6 additional, consecutive days thereafter.

[4] = 50 mg/kg IP, 5th day after the cisplatin injection

CN(C)CCOC(=O)CCCSc1ccccc1 [Compound 3, 2-(dimcthylamino)ethyl 4-(phenylsulfanyl)butanoate]
mean level of creatinine in serum compared to G1 [1, 4]: significantly less
mean level of urea in serum compared to G1 [1, 4]: significantly less
gradual recovery of mean body weight, onset ([1]; G2: 50 mg/kg IP every 24 h for seven days from Day 2, cisplatin 11 mg/kg IP day 0): beginning from the sixth day of the study

C[N+](C)(C)CCOC(=O)CCCSc1ccccc1.Cl [Compound 22, N,N,N-trimethyl-2-{[4-(phenylsulfanyl)butanoyl]oxy}ethan-1-aminium chloride]
gradual recovery of mean body weight, onset ([2]; G2-G3: 50 mg/kg IP once or twice a day, days 2-8): beginning from the fifth day of the study
mean level of urea in serum compared to G1 ([2]; G2-G5, 50 mg/kg IP, 5th day after the cisplatin injection): significantly less
gradual recovery of mean body weight, onset ([2]; G4-G5: 50 mg/kg IP once or twice a day, days 0-6): beginning from the seventh day of the study
body weight change, comparison with the cisplatin, vehicle group ([3]; 25 mg/kg): No statistical significance
histopathology scores compared to Vehicle-treated animals with cisplatin injection ([3]; 25 mg/kg): no significant difference
body weight change over baseline (BWC) ([3]; 25 mg/kg infusion once per day): −17.6%
kidney histopathology: cast deposition ([3]; 25 mg/kg, H&E, terminal day): medium
kidney histopathology: connective tissue accumulation ([3]; 25 mg/kg, H&E, terminal day): mild
kidney histopathology: glomerulonephritis ([3]; 25 mg/kg, H&E, terminal day): mild
kidney histopathology: hemorrhages ([3]; 25 mg/kg, H&E, terminal day): occasional
kidney histopathology: interstitial nephritis ([3]; 25 mg/kg, H&E, terminal day): medium/severe
kidney histopathology: loss of brush border ([3]; 25 mg/kg, H&E, terminal day): severe
kidney histopathology: loss of tubules ([3]; 25 mg/kg, H&E, terminal day): mild
kidney histopathology: necrotic loci ([3]; 25 mg/kg, H&E, terminal day): medium-frequent
kidney histopathology: tubular atrophy ([3]; 25 mg/kg, H&E, terminal day): mild
kidney histopathology: tubular dilation ([3]; 25 mg/kg, H&E, terminal day): medium
kidney histopathology: tubular epithelium flattening ([3]; 25 mg/kg, H&E, terminal day): medium/severe
kidney histopathology: tubular epithelium loss ([3]; 25 mg/kg, H&E, terminal day): medium
kidney histopathology: tubular hyperplasia ([3]; 25 mg/kg, H&E, terminal day): occasional
serum Creatinine values compared to the cisplatin, vehicle-treated group ([3]; 25 mg/kg, day 6): significant decrease
serum Urea values compared to the cisplatin, vehicle group ([3]; 25 mg/kg, day 6): significant decrease
body weight change, comparison with the cisplatin, vehicle group ([3]; 50 mg/kg): No statistical significance
histopathology scores compared to Vehicle-treated animals with cisplatin injection ([3]; 50 mg/kg): no significant difference
severity of weight loss in individual animals (frequency distribution analysis) ([3]; 50 mg/kg and 25 mg/kg, end of the study period, compared to cisplatin treatment): decreases the severity of weight loss
body weight change over baseline (BWC) ([3]; 50 mg/kg infusion once per day, survived animals): −3.9%
kidney histopathology: cast deposition ([3]; 50 mg/kg, H&E, terminal day): mild
kidney histopathology: connective tissue accumulation ([3]; 50 mg/kg, H&E, terminal day): mild
kidney histopathology: interstitial nephritis ([3]; 50 mg/kg, H&E, terminal day): mild/medium
kidney histopathology: loss of brush border ([3]; 50 mg/kg, H&E, terminal day): severe
kidney histopathology: loss of tubules ([3]; 50 mg/kg, H&E, terminal day): occasional
kidney histopathology: necrotic loci ([3]; 50 mg/kg, H&E, terminal day): occasional
kidney histopathology: tubular atrophy ([3]; 50 mg/kg, H&E, terminal day): medium/mild
kidney histopathology: tubular basophilia ([3]; 50 mg/kg, H&E, terminal day): occasional
kidney histopathology: tubular dilation ([3]; 50 mg/kg, H&E, terminal day): medium
kidney histopathology: tubular epithelium flattening ([3]; 50 mg/kg, H&E, terminal day): medium
kidney histopathology: tubular epithelium loss ([3]; 50 mg/kg, H&E, terminal day): medium
kidney histopathology: tubular epithelium vacuolation ([3]; 50 mg/kg, H&E, terminal day): occasional
kidney histopathology: tubular hyperplasia ([3]; 50 mg/kg, H&E, terminal day): occasional
serum Creatinine values compared to the cisplatin, vehicle-treated group ([3]; 50 mg/kg, day 6): significant decrease
serum Creatinine values compared to the cisplatin, vehicle-treated group ([3]; 50 mg/kg, day 9): significant decrease
serum Urea values compared to the cisplatin, vehicle group ([3]; 50 mg/kg, day 9): significant decrease
cisplatin-induced AKI development (serum Creatinine and Urea levels during infusions and post-infusion period) ([3]; both tested doses (50 mg/kg and 25 mg/kg)): prevented cisplatin-induced AKI development

N.N.[Cl][Pt][Cl] [cisplatin]
probability of survival in LLC animals (LLC animals): ~75%
